Results on 13 compounds are retold here after publication PMC10682911 (Saudi Pharmaceutical Journal : SPJ, 2023).

Structures are written as SMILES. Values joined by “and” are separate entries in the source; they are usually repeats but may differ in a detail not shown here. Equal entries are not always repeated.

The target of one test is hCA IX (Homo sapiens, UniProt Q16790). In words: biochemical. As to conditions: for Ki: Ki hCA IX, stopped-flow technique, mean from 3 different assays; for Selectivity analysis hCA I/IX / Selectivity analysis hCA II/IX: SI; for Selectivity analysis hCA I/IX: hCA IX over hCA I (ratio of Ki); for Selectivity analysis hCA II/IX: hCA IX over hCA II (ratio of Ki).
The next test concerns the target hCA XII (Homo sapiens, UniProt O43570). In words: hCA XII inhibition, stopped-flow technique. Format: biochemical. As to conditions: for Selectivity analysis hCA I/XII / Selectivity analysis hCA II/XII: SI; for Selectivity analysis hCA I/XII: hCA XII over hCA I (ratio of Ki); for Selectivity analysis hCA II/XII: hCA XII over hCA II (ratio of Ki).
Another test deals with hCA I (Homo sapiens, UniProt P00915). In words: hCA I inhibition, stopped-flow technique. Format: biochemical.
Another test has as its target hCA II (Homo sapiens, UniProt P00918). In words: hCA II inhibition, stopped-flow technique. The format is biochemical.

What is called Ki is a dissociation constant, usually derived from enzyme kinetics or from competition with a known ligand.

hCA XII, sequence (O43570 25-354): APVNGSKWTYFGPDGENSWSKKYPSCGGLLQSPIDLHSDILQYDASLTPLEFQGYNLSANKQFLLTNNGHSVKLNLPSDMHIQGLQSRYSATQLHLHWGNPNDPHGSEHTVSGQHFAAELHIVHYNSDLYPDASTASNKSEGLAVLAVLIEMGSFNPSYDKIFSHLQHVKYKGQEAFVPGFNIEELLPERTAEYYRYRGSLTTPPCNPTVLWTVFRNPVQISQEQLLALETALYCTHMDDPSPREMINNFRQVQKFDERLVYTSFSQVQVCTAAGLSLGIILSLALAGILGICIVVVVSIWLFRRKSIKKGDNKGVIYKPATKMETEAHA
hCA I, sequence (P00915 whole entry): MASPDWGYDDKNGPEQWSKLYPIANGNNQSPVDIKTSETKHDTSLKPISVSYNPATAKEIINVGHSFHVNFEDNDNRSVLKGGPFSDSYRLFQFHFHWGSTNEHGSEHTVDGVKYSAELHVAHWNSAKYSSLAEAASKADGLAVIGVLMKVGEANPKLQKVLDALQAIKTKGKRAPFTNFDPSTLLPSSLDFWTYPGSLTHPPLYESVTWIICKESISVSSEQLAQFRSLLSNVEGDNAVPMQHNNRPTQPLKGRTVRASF

Take `COc1cc(C(C)=NNC(=O)CSc2nc3ccccc3c(=O)n2CCc2ccc(S(N)(=O)=O)cc2)cc(OC)c1OC` [Compound 22, 4-(2-(4-Oxo-2-((2-oxo-2-(2-(1-(3,4,5-trimethoxyphenyl)ethylidene)hydrazineyl)ethyl)thio)quinazolin-3(4H)-yl)ethyl)benzenesulfonamide]: on hCA IX, the affinity, expressed as Ki, was 184 nM; the “Selectivity analysis hCA I/IX” value is listed as 12.52; the “Selectivity analysis hCA II/IX” value was 1.80. At hCA XII, affinity was put at a Ki of 85.2 nM, the “Selectivity analysis hCA I/XII” value was found to be 27.09 and the “Selectivity analysis hCA II/XII” value was determined as 3.90. For the same compound, at hCA I, the affinity corresponds to a Ki of 2310 nM. Affinity on hCA II was put at a Ki of 333 nM.
With `COc1cc(C=NNC(=O)CSc2nc3ccccc3c(=O)n2CCc2ccc(S(N)(=O)=O)cc2)ccc1O` [Compound 14, 4-(2-(2-((2-(2-(4-Hydroxy-3-methoxybenzylidene)hydrazineyl)-2-oxoethyl)thio)-4-oxoquinazolin-3(4H)-yl)ethyl)benzenesulfonamide], on hCA IX, the inhibition constant (Ki) was 60.1 nM, the “Selectivity analysis hCA I/IX” value is recorded as 14.25 and the “Selectivity analysis hCA II/IX” value is recorded as 0.50. Also, at hCA XII, the affinity corresponds to a Ki of 14.2 nM, the “Selectivity analysis hCA I/XII” value stood at 60.35 and the “Selectivity analysis hCA II/XII” value is listed as 2.09. On hCA I, this compound had a Ki of 857 nM. Moreover, affinity at hCA II was put at a Ki of 29.7 nM.
For the compound `NS(=O)(=O)c1ccc(CCn2c(SCC(=O)NN=Cc3cccc(O)c3)nc3ccccc3c2=O)cc1` [Compound 6, 4-(2-(2-((2-(2-(3-Hydroxybenzylidene)hydrazineyl)-2-oxoethyl)thio)-4-oxoquinazolin-3(4H)-yl)ethyl)benzenesulfonamide], on hCA IX, the Ki stood at 38.9 nM, the “Selectivity analysis hCA I/IX” value came to 24.60 and the “Selectivity analysis hCA II/IX” value is 2.31. Moreover, on hCA XII, the affinity, expressed as Ki, was 34.7 nM; the “Selectivity analysis hCA I/XII” value is listed as 27.58; the “Selectivity analysis hCA II/XII” value stood at 2.60. In addition, at hCA I, affinity was put at a Ki of 957 nM. For the same compound, the Ki at hCA II turned out to be 90.1 nM.
For the compound `COc1ccc(C=NNC(=O)CSc2nc3ccccc3c(=O)n2CCc2ccc(S(N)(=O)=O)cc2)cc1` [Compound 10, 4-(2-(2-((2-(2-(4-Methoxybenzylidene)hydrazineyl)-2-oxoethyl)thio)-4-oxoquinazolin-3(4H)-yl)ethyl)benzenesulfonamide], at hCA IX, the inhibition constant (Ki) stood at 49.7 nM, the “Selectivity analysis hCA I/IX” value worked out at 11.23 and the “Selectivity analysis hCA II/IX” value is given as 1.68. Moreover, on hCA XII, the affinity, expressed as Ki, was 46.5 nM; the “Selectivity analysis hCA I/XII” value was found to be 12.00; the “Selectivity analysis hCA II/XII” value is reported as 1.79. Besides, the Ki on hCA I worked out at 558 nM. Also, the affinity on hCA II corresponds to a Ki of 83.4 nM.
As to `COc1ccc(OC)c(C(C)=NNC(=O)CSc2nc3ccccc3c(=O)n2CCc2ccc(S(N)(=O)=O)cc2)c1` [Compound 20, 4-(2-(2-((2-(2-(1-(2,5-Dimethoxyphenyl)ethylidene)hydrazineyl)-2-oxoethyl)thio)-4-oxoquinazolin-3(4H)-yl)ethyl)benzenesulfonamide], at hCA IX, the affinity, expressed as Ki, was 29.4 nM; the “Selectivity analysis hCA I/IX” value was found to be 57.65; the “Selectivity analysis hCA II/IX” value came out at 7.77. For the same compound, at hCA XII, affinity was put at a Ki of 79.9 nM, the “Selectivity analysis hCA I/XII” value was determined as 21.21 and the “Selectivity analysis hCA II/XII” value worked out at 2.86. This compound came in with a Ki on hCA I of 1690 nM. At hCA II, this compound showed an inhibition constant Ki of 228 nM.
`COc1ccc(C=NNC(=O)CSc2nc3ccccc3c(=O)n2CCc2ccc(S(N)(=O)=O)cc2)c(OC)c1` [Compound 11, 4-(2-(2-((2-(2-(2,4-Dimethoxybenzylidene)hydrazineyl)-2-oxoethyl)thio)-4-oxoquinazolin-3(4H)-yl)ethyl)benzenesulfonamide]: the Ki on hCA IX came to 52.7 nM; on hCA XII, 74.3 nM; at hCA I it was 2300 nM; on hCA II, 50.9 nM. The “Selectivity analysis hCA I/IX” value on hCA IX came out at 43.60. Further, the “Selectivity analysis hCA I/XII” value on hCA XII was determined as 30.928. In addition, the “Selectivity analysis hCA II/XII” value at hCA XII was determined as 0.68.
Consider `NS(=O)(=O)c1ccc(CCn2c(SCC(=O)NN=Cc3ccc(O)cc3)nc3ccccc3c2=O)cc1` [Compound 7, 4-(2-(2-((2-(2-(4-Hydroxybenzylidene)hydrazineyl)-2-oxoethyl)thio)-4-oxoquinazolin-3(4H)-yl)ethyl)benzenesulfonamide], for which, on hCA IX, the inhibition constant (Ki) was 62.6 nM and 62.2 nM; the “Selectivity analysis hCA I/IX” value is recorded as 10.68; the “Selectivity analysis hCA II/IX” value was 1.23. Further, on hCA XII, the Ki is 19.5 nM, the “Selectivity analysis hCA I/XII” value came out at 34.08 and the “Selectivity analysis hCA II/XII” value is recorded as 3.92. The same compound gave a Ki at hCA I of 665 nM. At hCA II, this compound yielded a Ki of 76.4 nM.
As for `NNC(=O)CSc1nc2ccccc2c(=O)n1CCc1ccc(S(N)(=O)=O)cc1` [Compound 3, 4-(2-(2-((2-hydrazineyl-2-oxoethyl)thio)-4-oxoquinazolin-3(4H)-yl)ethyl)benzenesulfonamide], the “Selectivity analysis hCA II/IX” value at hCA IX was 0.31.
As to `COc1cc(C=NNC(=O)CSc2nc3ccccc3c(=O)n2CCc2ccc(S(N)(=O)=O)cc2)cc(OC)c1OC` [Compound 13, 4-(2-(4-Oxo-2-((2-Oxo-2-(2-(3,4,5-trimethoxybenzylidene)hydrazineyl)ethyl)thio)quinazolin-3(4H)-yl)ethyl)benzenesulfonamide], at hCA IX, the affinity corresponds to a Ki of 124 nM, the “Selectivity analysis hCA I/IX” value was 16.05 and the “Selectivity analysis hCA II/IX” value was determined as 5.38. Further, at hCA XII, the Ki is 91.5 nM, the “Selectivity analysis hCA I/XII” value was found to be 21.66 and the “Selectivity analysis hCA II/XII” value is 7.27. At hCA I, the affinity, expressed as Ki, was 1980 nM. Also, affinity at hCA II was put at a Ki of 665 nM.
For the compound `COc1ccc(C(C)=NNC(=O)CSc2nc3ccccc3c(=O)n2CCc2ccc(S(N)(=O)=O)cc2)cc1OC` [Compound 19, 4-(2-(2-((2-(2-(1-(3,4-Dimethoxyphenyl)ethylidene)hydrazineyl)-2-oxoethyl)thio)-4-oxoquinazolin-3(4H)-yl)ethyl)benzenesulfonamide], on hCA IX, the affinity, expressed as Ki, was 40.3 nM; the “Selectivity analysis hCA I/IX” value was 20.46; the “Selectivity analysis hCA II/IX” value is 4.70. For the same compound, at hCA XII, the affinity corresponds to a Ki of 68.1 nM, the “Selectivity analysis hCA I/XII” value worked out at 12.108 and the “Selectivity analysis hCA II/XII” value was found to be 2.77. In addition, the Ki on hCA I was found to be 825 nM. This compound displayed a Ki on hCA II of 189 nM.
Regarding `COc1cc(OC)cc(C(C)=NNC(=O)CSc2nc3ccccc3c(=O)n2CCc2ccc(S(N)(=O)=O)cc2)c1` [Compound 21, 4-(2-(2-((2-(2-(1-(3,5-Dimethoxyphenyl)ethylidene)hydrazineyl)-2-oxoethyl)thio)-4-oxoquinazolin-3(4H)-yl)ethyl)benzenesulfonamide], on hCA IX, the affinity, expressed as Ki, was 52.7 nM; the “Selectivity analysis hCA I/IX” value is recorded as 21.95; the “Selectivity analysis hCA II/IX” value came to 2.48. On hCA XII, the Ki is 58 nM, the “Selectivity analysis hCA I/XII” value was 19.95 and the “Selectivity analysis hCA II/XII” value was 2.25. Affinity on hCA I was put at a Ki of 1160 nM. Besides, at hCA II, the Ki came to 131 nM.
With `COc1ccc(C=NNC(=O)CSc2nc3ccccc3c(=O)n2CCc2ccc(S(N)(=O)=O)cc2)cc1OC` [Compound 12, 4-(2-(2-((2-(2-(3,4-Dimethoxybenzylidene)hydrazineyl)-2-oxoethyl)thio)-4-oxoquinazolin-3(4H)-yl)ethyl)benzenesulfonamide], at hCA IX, the affinity, expressed as Ki, was 88.3 nM; the “Selectivity analysis hCA I/IX” value is given as 11.98; the “Selectivity analysis hCA II/IX” value was 2.94. For the same compound, at hCA XII, the inhibition constant (Ki) is 69.2 nM, the “Selectivity analysis hCA I/XII” value was found to be 15.289 and the “Selectivity analysis hCA II/XII” value is reported as 3.75. In addition, affinity on hCA I was put at a Ki of 1060 nM. Besides, at hCA II, the Ki is 260 nM.
As to `NS(=O)(=O)c1ccc(CCn2c(SCC(=O)NN=Cc3ccc4c(c3)OCO4)nc3ccccc3c2=O)cc1` [Compound 15, 4-(2-(2-((2-(2-(Benzo[d][1,3]dioxol-5-ylmethylene)hydrazineyl)-2-oxoethyl)thio)-4-oxoquinazolin-3(4H)-yl)ethyl)benzenesulfonamide], on hCA IX, the Ki came out at 16.5 nM, the “Selectivity analysis hCA I/IX” value was 41.95 and the “Selectivity analysis hCA II/IX” value worked out at 6.10. Besides, at hCA XII, affinity was put at a Ki of 52.8 nM, the “Selectivity analysis hCA I/XII” value stood at 13.11 and the “Selectivity analysis hCA II/XII” value stood at 1.91. Further, affinity on hCA I was put at a Ki of 692 nM. On hCA II, this compound gave a Ki of 101 nM.
